Patent US20060003016A1, “Therapeutic method for endolymphatic hydrops associated diseases” (priority 2004, published 2006)
Like-named read-outs stand apart in the source and are kept apart here.

Legend:
[1] = test system: patients with Meniere's disease
From the text: In the present case who could be followed up for more than 24 months after treatment with water intake, the therapeutic effect was judged by using the criteria of AAO-HNS (1995)^14), 15). Proviso that in an examination on changes of the hearing, although the criteria in the four-frequency pure-tone averages (PTA) of AAO-HNS (1995)^14) adopted mean values of the hearing levels consisting of 500 Hz, 1000 Hz, 2000 Hz and 3000 Hz, in our case, the value of 4000 Hz was used in stead of that of 3000 Hz.
Therapeutic effect for vertigo^14), 15) was calculated according to the following equation. [formula]
Namely, in the present case, vertiginous attack in 6 months during 18 months-24 months after the treatment was 0 time, and average numbers of rotatory vertigo per month for 6 months before the treatment were 2 times (i.e. onset in Mar. 5, 2000 and Jul. 22, 2000 within 6 months before Aug. 5, 2000). Consequently, applying the above equation: [formula] […] Clinical Case 4 Low Frequency Sensorineural Hearing Loss of the Right Ear

[2] = test system: patients with Meniere's disease and endolymphatic hydrops associated diseases; test: Clinical course of vertigo, aural fullness, tinnitus and hearing in clinical cases; assay type: in vivo, patient
From the text: Therapeutic method of our invention is always performed after general examinations and standard laboratory examinations, such as blood pressure, plasma electrolytes, and urine osmolality. After consideration of body weight, age, sex, and life style, we directed the patients to take adequate water (see below) every day in combination with short-term application with isosorbite®. During the initial stage of the water intake method, recommended volume of water intake for adult male, weighing 60 kg, is calculated as 1.8-2.1 l per day according to the following formula (F 1). […] They seem to be nervous and live under the very strong psychological pressure.
The present invention is explained in detail by mentioning clinical cases.

[3] = case 1, water intake 2 lit./day continued, up to March 2004

O [water intake, water]
category of therapeutic effect for vertigo, AAO-HNS criteria ([1]; case 3, water intake): complete control
vertiginous attack in 6 months during 18 months-24 months after the treatment ([1]; case 3, water intake, 2 times in 6 months before): 0 time
category of therapeutic effect for vertigo, AAO-HNS criteria ([1]; case 6, water intake): complete control
vertiginous attack in 6 months during 18 months-24 months after the treatment ([1]; case 6, water intake, 4 times estimated in 6 months before): 0 time
category of therapeutic effect for vertigo, AAO-HNS criteria ([1]; case 7, water intake): complete control
vertiginous attack in 6 months during 18 months-24 months after the treatment ([1]; case 7, water intake, 0 time in 6 months before): 0 time
category of therapeutic effect for vertigo, AAO-HNS criteria ([1]; case 8, water intake): complete control
vertiginous attack in 6 months during 18 months-24 months after the treatment ([1]; case 8, water intake, 1 in 6 months before): 0 time
right hearing [2, 3]: within normal range
rotatory vertigo [2, 3]: no rotatory vertigo was noted
rotatory vertigo ([2]; case 2, water intake 1.5 lit./day from Feb. 21, 2003 in addition to isosorbide 21 g/dose and difenidol hydrochloride 25 mg/dose on demand): remitted after May 3, 2003
resound or aural fullness (in the right ear) ([2]; case 2, water intake 1.5 lit./day in addition to isosorbide and difenidol hydrochloride on demand): remitted after Aug. 18, 2003
hearing level ([2]; case 2, water intake 1.5 lit./day in addition to isosorbide and difenidol hydrochloride on demand, to February 2004): maintained within normal range
hearing ([2]; case 3, water intake, up to January 2004): maintained within normal range
rotatory vertigo ([2]; case 3, water intake, up to January 2004, except one attack Mar. 16, 2001): no rotatory vertigo was recognized
hearing of the right low tone ([2]; case 4, water intake 1.5 lit./day, October 2003 to January 2004): maintained improved state
rotatory vertigo ([2]; case 5, water intake 1.5 lit./day): could not be recognized after Oct. 24, 2002
high frequency sensorineural hearing loss of the left ear ([2]; case 5, water intake 1.5 lit./day plus isosorbide 63 g t.d.s. and adenosine triphosphate 300 mg t.d.s for 2 weeks): improved in Oct. 24, 2002
low frequency sensorineural hearing loss of the left ear ([2]; case 5, water intake 1.5 lit./day plus isosorbide and adenosine triphosphate for 2 weeks): improved from Nov. 29, 2002
left hearing compared with right hearing ([2]; case 5, water intake 1.5 lit./day, from Jul. 18, 2003): became equal level to the right hearing
left ear tinnitus ([2]; case 5, water intake 1.5 lit./day, to January 2004): gradually remitted
rotatory vertiginous attack accompanied by tinnitus ([2]; case 6, water intake with isosorbide and difenidol hydrochloride on demand, after Dec. 21, 2001 until February 2004): no rotary vertiginous attack
low frequency sensorineural hearing loss of the left ear ([2]; case 7, water intake 300 ml before going to sleep in addition to steroid, VB12 and PGE1): improved
left hearing ([2]; case 7, water intake continued (1.5 lit./day after September 2002), until now): maintained the improved state
right hearing level lower as compared with the left hearing level in all frequency range ([2]; case 8, water intake, at present, 2 -25 dB at initial examination): 5 -15 dB
rotatory vertigo ([2]; case 8, water intake, during the progress after the initial examination): No rotatory vertigo could be recognized
outcome of most of patients with Meniere's disease ([2]; water intake method in combination with short-term isosorbide): improved without re-attack for 1-2 years
